{"source": "patent US20070192880A1", "about": "“Horming response element binding transregulators” (UNIVERSITY OF ROCHESTER, priority 2003, published 2007)", "key": {"MCF-7 cells": {"system": "MCF-7 cells", "assay": "cell cycle analysis (FACS, EGFP-positive cells), transfected MCF-7 cells", "format": "cell-based, human", "protocol": "(§1) Transfection and processing of cells were done as described in legend of FIG. 5.\nMDA-MB-231 and MCF-7 cells were grown as described above. Cells were then transiently transfected with the EGFP vector bearing a cDNA for ERα, CDC or an EBA. Twenty-four hours after transfection, cells were collected by trypsinization, washed in phosphate buffered saline (PBS) and fixed with 1% paraformaldehyde in PBS for one hour. Cells were permeabilized in 70% Ethanol overnight and stained with 50 μg/ml propidium iodide (PI, Sigma-Aldrich) for one hour for flow cytometry analysis. Samples were analyzed on a FACS EPICS Elite EPS flow cytometer (Coulter Corp., Hialeah, Fla.). The percentages of cells at G1 phase were assessed among treatment groups and expressed as percent change compared to cells transfected with EGFP vector bearing no cDNA."}, "[1]": {"system": "human Catepsin D (CatD) gene promoter", "assay": "CatD promoter luciferase reporter, COS-1 cells", "format": "cell-based, African green monkey", "conditions": "without or with 10^−9 M E2 or 10^−7 M 4-OHT, 24 h", "excerpt": "Transfection and processing of cells were done as described in legend of FIG. 7. The reporter vector contains the human Catepsin D (CatD) gene promoter that drives the firefly luciferase cDNA expression. The mean±SEM indicates three independent experiments performed in duplicate.\n(§2) The CatD and C3 promoters were generated by PCR using pCD3542 (Augereau P. et al. Mol Endocr 8:693-703) and pC3TI (Fan JD. (1996) Mol Endocrinol 10: 1605-16) reporter plasmids as templates, respectively. A fragment of 730 bp [−750 to −22, +1 is referred to the first ATG, (Parker, M. G. (1998) Biochem Soc Symp 63, 45-50)] of the promoter region of CatD gene or 580 bp [−516 to +61, +1 as the transcription start site) of the C3 gene (Tzukerman, M. T. et al. (1994) Mol Endocrinol 8, 21-30)] was generated. PCR fragments were then inserted into the reporter plasmid pGL3-Basic linearized with appropriate restriction enzymes.\n(§3) COS-1 cells were transfected with a reporter construct bearing CatD or C3 promoter together with the expression vector bearing none (V, as control), cDNA for ERα or an EBR. Following a transfection, cells were treated without or with 10^−9 M E2 or 10^−7 M 4-OHT for 24 h."}, "human C3 gene promoter": {"system": "human C3 gene promoter", "assay": "C3 promoter luciferase reporter, COS-1 cells", "format": "cell-based, African green monkey", "excerpt": "Transfection and processing of cells were done as described in legend of FIG. 7. Shown are the mean±SEM of three independent experiments performed in duplicate and expressed as fold changes compare to the parent expression vector (V), which was set to one.\nas §2, §3"}, "[2]": {"system": "pS2, C3 and Oxytocin promoter constructs", "assay": "pS2, C3 and Oxytocin promoter luciferase reporters, MCF-7 cells", "format": "cell-based, human", "conditions": "absence or presence of 10^−9 M E2, FIG. 6A", "protocol": "as §1\n(§4) Culturing and transfection of the mammalian COS-1 and […] MDA-MB-231 cells were described previously (Muyan, M. et al. (2001) Mol Cell Endocrinol 182,249-263; Yi, P. et al. (2002) Mol Endocrinol 16, 1810-1827), with the exceptions that 48 well cell culture plates were used and Trans-IT LTI transfection reagent (Mirus Corp., Madison, Wis.). Luciferase assays were performed with a Dual Luciferase Assay kit (Promega) according to the manufacture's recornmendations. Steroid hormones and 9-cis retinoic acid were purchased from Sigma-Aldrich (St. Louis, Mo.). For transfection of MDA-MB-231 and MCF-7 cells, the cells were incubated for three days in a phenol red-free DMEM supplemented with 10% charcoal-dextran treated fetal bovine serum (CD-FBS). Cells were transfected with appropriate expression vectors using Lipofectamine 2000 transfection reagent (Invitrogen)."}, "RARα promoter": {"system": "RARα promoter", "assay": "RARα promoter luciferase reporter, MCF-7 cells", "format": "cell-based, human", "conditions": "without or with 10^−9 M E2", "protocol": "as §1, §4"}, "[3]": {"system": "ERE-driven TATA box promoter", "assay": "luciferase reporter, consensus ERE upstream of TATA box promoter, COS-1 cells", "format": "cell-based, African green monkey", "excerpt": "Proteins were probed with a Flag antibody followed by a fluorescein-conjugated secondary antibody for visualization (FITC). DAPI staining indicates the nucleus. […] (*) denotes mutants with an impaired DNA binding finction, while VP16* depicts the activation function defective construct. The reporter plasmid contained either one (1× ERE) or two copies (2× ERE) of the consensus ERE in tandem located upstream of a simple promoter, TATA box, driving the expression of the firefly luciferase cDNA. The transfection efficiency was monitored by the co-expression of 0.5 ng of a reporter plasmid, pCMV-RL that drives the expression of Renilla luciferase cDNA. Cells were treated with or without 10^−9 M E2 for 24 h. The cell extracts were assayed for luciferase enzymes, and the normalized firefly/Renilla luciferase activities are presented as fold changes compare to the control, which was set to one. Shown are the mean±SEM of three independent experiments performed in duplicate.\nCulturing and transfection of the mammalian COS-1 and […] MDA-MB-231 cells were described previously (Muyan, M. et al. (2001) Mol Cell Endocrinol 182,249-263; Yi, P. et al. (2002) Mol Endocrinol 16, 1810-1827), with the exceptions that 48 well cell culture plates were used and Trans-IT LTI transfection reagent (Mirus Corp., Madison, Wis.). […]"}}, "note": "“Also recorded” adds a separate entry of the source."}
{"molecule": "4-hydroxytamoxifen [Construct 4-OHT]", "values": [{"measurement": "cells accumulated in the G1 phase", "setting": "MCF-7 cells; medium with untreated FBS, 4-OHT 10^−7 M", "result": "increased the cell population in the G1 phase"}, {"measurement": "effect on CatD promoter reporter enzyme activity", "setting": "[1]", "result": "did not alter the transcription of the reporter enzyme mediated by ERα; also recorded: prevented the E2-ERα complex-mediated augmentation"}, {"measurement": "effect on C3 promoter reporter enzyme activity", "setting": "human C3 gene promoter", "result": "effectively decreased the transcription induction"}]}
{"molecule": "C[C@]12CC[C@@H]3c4ccc(O)cc4CC[C@H]3[C@@H]1CC[C@@H]2O", "note": "[Construct E2, estradiol 17β]", "values": [{"measurement": "reporter enzyme activity from pS2, C3 and Oxytocin promoter constructs", "setting": "[2]", "result": "enhanced reporter enzyme activity"}, {"measurement": "transcriptional response from the RARα promoter", "setting": "RARα promoter", "result": "enhanced the reporter activity"}, {"measurement": "G1/S phase transition / cell cycle progression", "setting": "MCF-7 cells; charcoal-dextran treated FBS, E2 10^−9 M", "result": "enhanced the G1/S phase transition"}]}
{"molecule": "VP16: activation domain of the herpes simplex virion protein VP16 alone, residues 403-490", "values": [{"measurement": "effect on transcription from ERE-TATA reporter", "setting": "[3]", "result": "did not alter the transcription"}]}
